Measurements published in patent US20250042900A1 (priority 2022, published 2025).
pEC50, pIC50: −log10 of the molar value. Structures can show the parent of a compound that is named as a salt. Where two headings read alike, the source gives them in different places.

Key:
[1] = target: Opioid Receptor Kappa 1 (OPRK1) (Homo sapiens, UniProt P41145); assay: cAMP secondary messenger assay, agonist format; assay type: cell-based; settings: read-out: EC50 (μM) Agonist/Opener
[2] = target: Opioid Receptor Delta 1 (OPRD1) (Homo sapiens, UniProt P41143); assay: cAMP secondary messenger assay, antagonist format; assay type: cell-based; settings: read-out: IC50 (μM) Antag./Blocker/Inhibitor
[3] = target: T1, Vascular endothelial growth factor receptor 2 (KDR tyrosine kinase) (VEGFR2) (Homo sapiens, UniProt P35968); assay: biochemical; settings: Binding, inhibitor, read-out: IC50 (μM) Antag./Blocker/Inhibitor
T1 construct: T7 phage fusion (most assays) or DNA tag for qPCR (the remaining kinases); made in house; host or cells: E. coli (BL21-derived, T7 phage display) or HEK-293

[4] = target: Histamine Receptor H2 (HRH2) (Homo sapiens, UniProt P25021); assay: cAMP secondary messenger assay, antagonist format; assay type: cell-based; settings: read-out: IC50 (μM) Antag./Blocker/Inhibitor
KvLQT1/minK [5] = target: T2, KvLQT1/minK (Homo sapiens, UniProt P51787); assay: Ion channel assay, blocker format; assay type: cell-based; settings: read-out: IC50 (μM) Antag./Blocker/Inhibitor
T2 sequence (P51787 whole entry): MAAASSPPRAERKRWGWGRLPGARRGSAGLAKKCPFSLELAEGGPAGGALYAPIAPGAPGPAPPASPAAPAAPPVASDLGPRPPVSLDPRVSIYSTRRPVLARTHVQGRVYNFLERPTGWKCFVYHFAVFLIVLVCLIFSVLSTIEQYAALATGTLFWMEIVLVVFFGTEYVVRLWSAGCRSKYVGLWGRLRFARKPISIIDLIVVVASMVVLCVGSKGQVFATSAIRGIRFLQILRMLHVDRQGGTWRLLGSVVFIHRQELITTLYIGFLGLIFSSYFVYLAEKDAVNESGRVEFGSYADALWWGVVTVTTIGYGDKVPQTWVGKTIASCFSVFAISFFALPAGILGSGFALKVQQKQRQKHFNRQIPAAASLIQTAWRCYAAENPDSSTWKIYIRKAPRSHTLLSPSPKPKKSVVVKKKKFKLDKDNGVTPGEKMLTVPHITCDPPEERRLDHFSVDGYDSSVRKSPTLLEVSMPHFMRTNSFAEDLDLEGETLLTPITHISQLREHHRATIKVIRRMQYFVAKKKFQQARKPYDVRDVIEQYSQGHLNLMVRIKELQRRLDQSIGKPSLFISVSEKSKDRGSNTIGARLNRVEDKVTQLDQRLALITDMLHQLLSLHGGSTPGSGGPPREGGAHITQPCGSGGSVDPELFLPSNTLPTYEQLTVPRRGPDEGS

[6] = target: T3, Cannabinoid Receptor 2 (CNR2) (Homo sapiens, UniProt P34972); assay: cAMP secondary messenger assay, agonist format; assay type: cell-based; settings: read-out: EC50 (μM) Agonist/Opener
T3 sequence (P34972 whole entry): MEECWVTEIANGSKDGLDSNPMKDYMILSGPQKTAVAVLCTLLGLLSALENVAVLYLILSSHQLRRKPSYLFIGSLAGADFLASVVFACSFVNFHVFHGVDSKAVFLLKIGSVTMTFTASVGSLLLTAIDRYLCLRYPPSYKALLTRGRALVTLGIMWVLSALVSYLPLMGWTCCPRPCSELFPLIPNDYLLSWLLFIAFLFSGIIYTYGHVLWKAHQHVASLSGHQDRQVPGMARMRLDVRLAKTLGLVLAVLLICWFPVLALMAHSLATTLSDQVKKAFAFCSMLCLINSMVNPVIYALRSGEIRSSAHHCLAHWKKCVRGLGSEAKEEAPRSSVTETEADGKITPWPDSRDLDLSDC

[7] = target: HTR2A (5-hydroxytryptamine (serotonin) receptor 2A) (Homo sapiens, UniProt P28223); assay: In vitro activity at 5-HT2AR, agonist mode (calcium flux secondary messenger assay); assay type: cell-based
HTR2A (5-hydroxytryptamine (serotonin) receptor 2A), sequence (P28223 whole entry): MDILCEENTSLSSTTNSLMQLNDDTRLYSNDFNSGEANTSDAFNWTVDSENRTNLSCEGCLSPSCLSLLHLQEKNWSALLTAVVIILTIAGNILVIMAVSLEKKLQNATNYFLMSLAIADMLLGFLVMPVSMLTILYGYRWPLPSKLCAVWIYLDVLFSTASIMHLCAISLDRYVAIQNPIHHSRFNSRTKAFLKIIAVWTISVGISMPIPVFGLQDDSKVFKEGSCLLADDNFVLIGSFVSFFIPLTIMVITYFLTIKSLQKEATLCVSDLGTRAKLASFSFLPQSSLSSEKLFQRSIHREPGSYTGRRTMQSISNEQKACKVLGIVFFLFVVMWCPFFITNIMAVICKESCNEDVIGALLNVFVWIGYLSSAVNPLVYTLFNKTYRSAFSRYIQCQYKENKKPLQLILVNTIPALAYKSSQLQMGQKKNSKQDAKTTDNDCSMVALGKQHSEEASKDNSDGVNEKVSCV

[8] = target: T4, Adrenergic Receptor β1 (ADRB1) (Homo sapiens, UniProt P08588); assay: cAMP secondary messenger assay, antagonist format; assay type: cell-based; settings: read-out: IC50 (μM) Antag./Blocker/Inhibitor
T4 sequence (P08588 whole entry): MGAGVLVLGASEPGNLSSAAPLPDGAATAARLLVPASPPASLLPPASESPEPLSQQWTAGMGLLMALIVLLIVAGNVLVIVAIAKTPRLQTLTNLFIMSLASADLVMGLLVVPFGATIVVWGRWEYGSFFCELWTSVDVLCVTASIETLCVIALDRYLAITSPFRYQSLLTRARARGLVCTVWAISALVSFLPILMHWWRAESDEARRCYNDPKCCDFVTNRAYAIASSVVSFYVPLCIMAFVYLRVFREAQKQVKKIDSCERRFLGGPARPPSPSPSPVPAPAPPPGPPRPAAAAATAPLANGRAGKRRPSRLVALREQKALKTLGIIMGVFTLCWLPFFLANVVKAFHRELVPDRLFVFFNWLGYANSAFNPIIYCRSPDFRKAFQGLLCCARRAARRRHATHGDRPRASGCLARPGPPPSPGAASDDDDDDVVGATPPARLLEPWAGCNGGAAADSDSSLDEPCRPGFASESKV

[9] = target: Adenosine Receptor A2A (ADORA2A) (Homo sapiens, UniProt P29274); assay: Calcium flux secondary messenger assay, agonist format; assay type: cell-based; settings: read-out: EC50 (μM) Agonist/Opener
[10] = target: T5, Endothelin Receptor Type A (EDNRA) (Homo sapiens, UniProt P25101); assay: as above; assay type: cell-based; settings: read-out: EC50 (μM) Agonist/Opener
T5 sequence (P25101 21-427): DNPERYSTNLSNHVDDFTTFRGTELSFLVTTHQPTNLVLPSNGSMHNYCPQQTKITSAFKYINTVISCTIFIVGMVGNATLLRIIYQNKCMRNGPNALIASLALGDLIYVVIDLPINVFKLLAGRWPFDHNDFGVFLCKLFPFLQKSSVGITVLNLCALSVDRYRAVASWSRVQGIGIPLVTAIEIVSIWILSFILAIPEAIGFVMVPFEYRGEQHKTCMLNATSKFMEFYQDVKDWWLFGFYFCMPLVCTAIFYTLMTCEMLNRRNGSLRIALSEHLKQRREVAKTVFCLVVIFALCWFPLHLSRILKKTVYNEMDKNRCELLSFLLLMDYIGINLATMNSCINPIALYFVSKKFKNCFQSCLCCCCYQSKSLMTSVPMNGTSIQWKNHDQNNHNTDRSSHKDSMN

[11] = target: 5-Hydroxytryptamine (Serotonin) Receptor 2B (5-HT2B) (Homo sapiens, UniProt P41595); assay: as above; assay type: cell-based; settings: read-out: EC50 (μM) Agonist/Opener
PDE3A = target: T6, PDE3A (Homo sapiens, UniProt Q14432); assay: Enzymatic assay PDE3A; assay type: biochemical; settings: inhibitor, read-out: IC50 (μM) Antag./Blocker/Inhibitor
T6 construct: purchased Signal Chem

[12] = target: T7, Nicotinic acetylcholine Receptor α4 β2 (nAChR(a4/b2)) (Homo sapiens, UniProt P17787+P43681); assay: Ion channel assay, opener format; assay type: cell-based; settings: read-out: EC50 (μM) Agonist/Opener
T7 sequence (P43681 29-627 limits assumed): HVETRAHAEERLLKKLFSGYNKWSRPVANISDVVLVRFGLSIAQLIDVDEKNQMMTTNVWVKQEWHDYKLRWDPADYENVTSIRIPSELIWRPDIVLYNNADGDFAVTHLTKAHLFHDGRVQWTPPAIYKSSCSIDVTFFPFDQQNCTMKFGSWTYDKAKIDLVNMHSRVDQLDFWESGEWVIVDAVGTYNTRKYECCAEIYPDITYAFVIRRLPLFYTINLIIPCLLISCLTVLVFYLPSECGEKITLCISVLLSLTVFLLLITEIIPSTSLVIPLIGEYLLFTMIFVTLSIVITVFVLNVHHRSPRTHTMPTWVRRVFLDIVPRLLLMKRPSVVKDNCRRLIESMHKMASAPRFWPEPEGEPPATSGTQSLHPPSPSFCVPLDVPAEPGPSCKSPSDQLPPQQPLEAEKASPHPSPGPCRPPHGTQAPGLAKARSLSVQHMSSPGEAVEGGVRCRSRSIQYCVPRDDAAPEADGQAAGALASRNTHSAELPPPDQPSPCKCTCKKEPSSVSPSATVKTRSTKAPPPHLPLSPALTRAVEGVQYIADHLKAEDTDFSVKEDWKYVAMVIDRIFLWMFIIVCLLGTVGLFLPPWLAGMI
T7 sequence (P17787 26-502): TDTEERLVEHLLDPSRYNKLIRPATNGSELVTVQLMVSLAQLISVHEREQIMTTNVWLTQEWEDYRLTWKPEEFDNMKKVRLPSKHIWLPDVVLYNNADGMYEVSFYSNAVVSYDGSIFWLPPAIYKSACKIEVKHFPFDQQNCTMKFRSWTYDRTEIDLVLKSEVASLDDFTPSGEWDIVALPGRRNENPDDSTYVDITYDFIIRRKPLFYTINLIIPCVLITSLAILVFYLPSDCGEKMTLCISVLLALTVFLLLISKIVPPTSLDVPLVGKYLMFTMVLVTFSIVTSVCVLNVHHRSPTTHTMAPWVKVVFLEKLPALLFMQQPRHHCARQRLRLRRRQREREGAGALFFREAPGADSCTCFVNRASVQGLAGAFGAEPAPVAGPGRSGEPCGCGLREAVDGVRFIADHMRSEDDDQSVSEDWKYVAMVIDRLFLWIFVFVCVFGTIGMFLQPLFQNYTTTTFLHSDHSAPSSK

[13] = test system: Gamma-aminobutyric acid Receptor A (GABAA); assay: Ion channel assay, blocker format; assay type: cell-based; settings: read-out: IC50 (μM) Antag./Blocker/Inhibitor
[14] = target: Muscarinic acetylcholine Receptor M3 (CHRM3) (Homo sapiens, UniProt P20309); assay: Calcium flux secondary messenger assay, agonist format; assay type: cell-based; settings: read-out: EC50 (μM) Agonist/Opener
[15] = target: Muscarinic acetylcholine Receptor M2 (CHRM2) (Homo sapiens, UniProt P08172); assay: cAMP secondary messenger assay, agonist format; assay type: cell-based; settings: read-out: EC50 (μM) Agonist/Opener
[16] = target: T8, 5-Hydroxytryptamine (Serotonin) Receptor 1B (5-HT1B) (Homo sapiens, UniProt P28222); assay: cAMP secondary messenger assay, antagonist format; assay type: cell-based; settings: read-out: IC50 (μM) Antag./Blocker/Inhibitor
T8 construct: host or cells: cAMP Hunter cell line

[17] = target: Cholecystokinin Receptor A (CCKAR) (Homo sapiens, UniProt P32238); assay: Calcium flux secondary messenger assay, antagonist format; assay type: cell-based; settings: read-out: IC50 (μM) Antag./Blocker/Inhibitor
Cholecystokinin Receptor A (CCKAR), sequence (P32238 whole entry): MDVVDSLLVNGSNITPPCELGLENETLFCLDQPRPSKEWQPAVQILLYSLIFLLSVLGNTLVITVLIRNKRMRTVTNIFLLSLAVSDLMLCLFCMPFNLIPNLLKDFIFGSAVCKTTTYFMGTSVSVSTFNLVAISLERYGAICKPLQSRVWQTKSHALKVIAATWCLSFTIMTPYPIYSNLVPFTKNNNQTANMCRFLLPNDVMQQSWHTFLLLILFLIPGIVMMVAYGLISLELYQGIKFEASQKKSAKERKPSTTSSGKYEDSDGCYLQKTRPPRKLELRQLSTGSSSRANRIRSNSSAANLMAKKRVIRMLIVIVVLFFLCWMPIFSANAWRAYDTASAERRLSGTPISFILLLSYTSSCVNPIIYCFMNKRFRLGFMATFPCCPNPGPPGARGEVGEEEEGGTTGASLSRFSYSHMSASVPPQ

[18] = target: T7, Nicotinic acetylcholine Receptor α4 β2 (nAChR(a4/b2)); assay: Ion channel assay, blocker format; assay type: cell-based; settings: read-out: IC50 (μM) Antag./Blocker/Inhibitor
[19] = target: T5, Endothelin Receptor Type A (EDNRA); assay: Calcium flux secondary messenger assay, antagonist format; assay type: cell-based; settings: read-out: IC50 (μM) Antag./Blocker/Inhibitor
[20] = target: Dopamine Receptor D1 (DRD1) (Homo sapiens, UniProt P21728); assay: cAMP secondary messenger assay, agonist format; assay type: cell-based; settings: read-out: EC50 (μM) Agonist/Opener
[21] = target: T4, Adrenergic Receptor β1 (ADRB1); assay: cAMP secondary messenger assay, agonist format; assay type: cell-based; settings: read-out: EC50 (μM) Agonist/Opener
[22] = target: T3, Cannabinoid Receptor 2 (CNR2); assay: cAMP secondary messenger assay, antagonist format; assay type: cell-based; settings: read-out: IC50 (μM) Antag./Blocker/Inhibitor
[23] = target: T9, Rho Associated Coiled-Coil Containing Protein Kinase 1 (ROCK1) (Homo sapiens, UniProt Q13464); assay: Kinase binding assay (KINOMEscan); settings: inhibitor, read-out: IC50 (μM) Antag./Blocker/Inhibitor
T9 construct: T7 phage fusion (most assays) or DNA tag for qPCR (the remaining kinases); made in house; host or cells: E. coli (BL21-derived, T7 phage display) or HEK-293

[24] = target: T10, 5-Hydroxytryptamine (Serotonin) Receptor 3A (5-HT3A) (Homo sapiens, UniProt P46098); assay: Ion channel assay, blocker format; assay type: cell-based; settings: read-out: IC50 (μM) Antag./Blocker/Inhibitor
T10 construct: expressed in transfected cells
T10 sequence (P46098 24-478): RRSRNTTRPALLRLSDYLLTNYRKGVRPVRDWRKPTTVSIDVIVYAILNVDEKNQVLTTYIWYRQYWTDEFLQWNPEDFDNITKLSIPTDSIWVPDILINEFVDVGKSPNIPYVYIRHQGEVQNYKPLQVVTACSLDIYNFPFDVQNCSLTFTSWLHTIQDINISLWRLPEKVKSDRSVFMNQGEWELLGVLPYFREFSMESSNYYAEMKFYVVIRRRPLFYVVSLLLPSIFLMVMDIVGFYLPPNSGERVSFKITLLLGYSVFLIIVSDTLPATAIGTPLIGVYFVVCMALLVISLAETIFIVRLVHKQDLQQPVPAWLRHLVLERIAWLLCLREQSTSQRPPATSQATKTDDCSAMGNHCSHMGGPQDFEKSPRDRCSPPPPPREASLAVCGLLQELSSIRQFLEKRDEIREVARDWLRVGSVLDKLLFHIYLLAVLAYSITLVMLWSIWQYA

KvLQT1/minK [25] = target: T2, KvLQT1/minK; assay: Ion channel assay, opener format; assay type: cell-based; settings: read-out: EC50 (μM) Agonist/Opener
serotonin transporter = target: T11, serotonin transporter (Homo sapiens, UniProt P31645); assay: cell-based; settings: SERT, blocker, read-out: IC50 (μM) Antag./Blocker/Inhibitor
T11 construct: expressed in transfected cells

[26] = target: Muscarinic acetylcholine Receptor M1 (CHRM1) (Homo sapiens, UniProt P11229); assay: cell-based; settings: Calcium Flux, antagonist, read-out: IC50 (μM) Antag./Blocker/Inhibitor
COX2 = target: T12, COX2 (Homo sapiens, UniProt P35354); assay: Enzymatic assay COX2; assay type: biochemical; settings: inhibitor, read-out: IC50 (μM) Antag./Blocker/Inhibitor
T12 construct: purchased BPS Bioscience

[27] = target: norepinephrine transporter (Homo sapiens, UniProt P23975); assay: Monoamine transporter uptake assay (Neurotransmitter Transporter Uptake Assay Kit), blocker format
[28] = target: 5-Hydroxytryptamine (Serotonin) Receptor 2A (5-HT2A) (Homo sapiens, UniProt P28223); assay: Calcium flux secondary messenger assay, antagonist format; assay type: cell-based; settings: read-out: IC50 (μM) Antag./Blocker/Inhibitor

Opioid Receptor Kappa 1 (OPRK1), sequence (P41145 whole entry): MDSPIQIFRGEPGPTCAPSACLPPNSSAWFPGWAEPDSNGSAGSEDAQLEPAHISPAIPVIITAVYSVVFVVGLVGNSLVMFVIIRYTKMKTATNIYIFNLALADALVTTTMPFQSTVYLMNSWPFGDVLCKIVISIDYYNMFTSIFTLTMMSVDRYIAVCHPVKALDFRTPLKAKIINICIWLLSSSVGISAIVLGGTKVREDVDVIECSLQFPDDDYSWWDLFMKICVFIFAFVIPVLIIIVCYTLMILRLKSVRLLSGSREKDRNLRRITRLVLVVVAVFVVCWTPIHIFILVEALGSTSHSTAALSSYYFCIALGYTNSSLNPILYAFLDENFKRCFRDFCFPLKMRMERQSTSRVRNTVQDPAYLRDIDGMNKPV

CN(C)CCc1ccn2ccccc12 [28-12 oxalate, 2-(indolizin-1-yl)-N, N-dimethylethan-1-amine oxalate]
EC50 [1]: > 30 µM | IC50 [2]: > 30 µM | IC50 [3]: > 30 µM | IC50 [4]: > 30 µM | IC50 (KvLQT1/minK [5]): > 30 µM | EC50 [6]: > 30 µM | agonist effects at 5-HT2AR (in words) [7]: partial agonist effects | EC50 ([7]; 5-HT2A, Calcium Flux, agonist, read-out: EC50 (μM) Agonist/Opener): 0.052 µM | pEC50 ([7]; agonist, ten concentrations up to 30 μM, estimated, read-out: EC50 at 5-HT2AR): ~7.28 | Emax ([7]; of the response produced by 5-HT, read-out: maximum effect at 5-HT2AR): ~30% | IC50 [8]: > 30 µM | EC50 [9]: > 30 µM | EC50 [10]: > 30 µM | EC50 [11]: > 30 µM | IC50 (PDE3A): > 30 µM | EC50 [12]: > 30 µM | IC50 [13]: > 30 µM | EC50 [14]: > 30 µM | EC50 [15]: > 30 µM | IC50 [16]: > 30 µM | IC50 [17]: > 30 µM | IC50 [18]: > 30 µM | IC50 [19]: > 30 µM | EC50 [20]: > 30 µM | EC50 [21]: > 30 µM | IC50 [22]: > 30 µM | IC50 [23]: > 30 µM | IC50 [24]: 7.82 µM | EC50 (KvLQT1/minK [25]): > 30 µM | IC50 (serotonin transporter): > 30 µM | IC50 [26]: > 30 µM | IC50 (COX2): > 30 µM | pIC50 [27]: < 4.52 | IC50 [28]: 1.08 µM
